Measurements published in PMC8362126, “Proteolysis Targeting Chimera (PROTAC) for Macrophage Migration Inhibitory Factor (MIF) Has Anti‐Proliferative Activity in Lung Cancer Cells” (Angewandte Chemie (International Ed. in English), 2021).
Values joined by “and” are separate entries in the source; they are usually repeats but may differ in a detail not shown here. Equal values may be shown once. “Also recorded” adds a separate entry of the source.

What was measured:
MIF [1] = molecular target: T1, MIF (Homo sapiens, UniProt P14174); test: MIF catalyzed 4-HPP tautomerization assay; type: biochemical; details: for IC50: 4-HPP conversion assay; for Ki: MIF catalyzed 4-HPP tautomerization, n=3
T1 sequence (P14174 2-115 limits assumed): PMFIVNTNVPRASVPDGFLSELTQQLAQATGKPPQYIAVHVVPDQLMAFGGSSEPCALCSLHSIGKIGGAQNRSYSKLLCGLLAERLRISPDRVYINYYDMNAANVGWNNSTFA
Description: S2. MIF Tautomerase activity IC50 study
The protocol for measuring inhibition of MIF tautomerase enzyme activity and enzyme kinetics was described previously.[8] Briefly, 180 µL of a 500 nM MIF solution in boric acid buffer (435 mM, pH 6.2) was mixed with 10 µL of a 20 mM EDTA solution in demiwater and 10 µL of a solution of the desired compound dissolved in DMSO or blanc DMSO. This mixture was pre-incubated at room temperature for 10 min. Next, 50 µL of this mixture was mixed with 50 µL of a 1 mM 4-HPP solution in ammonium acetate buffer (50 mM, pH 6.0). Subsequently, MIF tautomerase activity was monitored by measuring the increase of UV absorbance at 306 nm over time. MIF tautomerase activity in the presence a blank DMSO dilution was set to 100% enzyme activity. Non-catalyzed conversion of the substrate in absence of MIF was set to 0%.
Data from the first three minutes were used to calculate the initial velocities. All experiments were repeated three times and calculations were performed with the program GraphPad Prism.
Table S1. 4-HPP conversion assay results of MIF PROTACs
(also on this page, place not known: p rotocol previously. subs trate log [MD-1] (10^-6 M) Activity of MIF tautomerase(%) -2 -1 0 1 2 0 50 100 log [MD-2] (10^-6 M) Activity of MIF tautomerase(%) -2 -1 0 1 2 0 50 100)

MIF [2] = molecular target: T1, MIF; test: MIF degradation in A549 cells, cell lysate-based ELISA; parameters: endogenous in cells; host or cells: A549 (ATCC CCL-185); details: for degradation [%] 2 μM / Dmax at 20 µM / degradation (%) 20 µM: vs DMSO, mean±SD n=3
Description: In addition, A549 cells have been successfully used for assessing activity of cereblon ligand‐based PROTACs previously.[42] Therefore, A549 is a suitable cell line for evaluating the effect of our putative MIF‐directed PROTACs MD1 to MD12 on MIF protein levels. The reduction in MIF levels were monitored in A549 cells that were treated with two different PROTAC concentrations (20 and 2 μM) for 12 h in order to estimate the dose dependency, which is important for PROTACs because of the Hook effect.[35] The MIF levels in cell lysates were analyzed using an enzyme‐linked immunosorbent assay (ELISA).
S3. ELISA screening of MIF protein level on MIF-directed PROTACs
Cell culture. Human A549 lung cancer cells (ATCCCCL-185) or HEK293 kidney […]
containing 10% (v/v) fetal bovine serum (FBS), 100 U/mL penicillin/streptomycin […]
ELISA. 7×10^5 A549 cells per well were plated in 6-well plates. The next day, cells were treated with a solution of compounds or the vehicle for 12 h. Subsequently, the culture medium was removed and cells were washed twice with cold PBS and collected after trypsin (0.5 mL) degestion. Cells were then lyzed in lysis buffer (150 mM NaCl, 50 mM Hepes pH 7.5, 5 mM EDTA, 0.1% (w/v) NP40) containing protease inhibitor cocktail (Roche, #11836153001) and resuspended vigourously. The supernatant was collected after spinning down at 16 000g at 4 °C for 30 min. The total protein concentration was determined with PierceTM BCA protein assay kit ( ThermoFisher , #23225). The protein concentration was normalized between samples. The relative MIF levels from 1µg total protein were determined by ELISA with the human MIF DuoSet ELISA kit according to the instructions of the manufacturer (R&D systems, #DY289).
Figure S1. Screening of compounds for MIF degradation activity by cell lysate -based ELISA.
A549 cells were treated with compounds at (A) 20 or (B) 2 µM for 12 h. Data was normalized […]
(1 picture or pasted object on this page, not shown here)

MIF [3] = molecular target: T1, MIF; test: MIF degradation in A549 cells, western-blot; type: cell-based; parameters: endogenous in cells; host or cells: A549 (ATCC CCL-185); details: A549 cells; for rescue of MD9 mediated MIF degradation: 2 hours pretreatment (1 100 µM, 3 50 µM, 4 50 µM, Bortezomib), then 10 µM MD9 12 h; for rescue of MD13 mediated MIF degradation: co-treatment (Bortezomib) or 1 hour pretreatment (3, 4) with MD13
Description: The concentration dependence of PROTAC MD13‐mediated induction of MIF degradation in A549 cells was investigated using western‐blot. […] The MIF levels were normalized to the vehicle treated control and plotted to the respective MD13 concentrations. This provided a DC50 of around 100 nM and a maximal degradation of around 90–95 % at concentrations higher than 1 μM (Figure 3 B). The DC50 of MD13 measured by ELISA assay was about 200 nM (Figure 3 C), which is in line with the result from western‐blot. […]
Cell lysates were prepared using the protocol described above. About 10−40 μg of total protein was mixed with the 4× Laemmli Loading Dye (250 mM Tris, pH 6.8, 40% glycerol, 5% SDS, 0.005% bromophenol blue, 4% β-mercaptoethanol) and heated at 95−100 °C for 5 min and loaded onto a 12% Bis-Tris gel (Bio-Rad Laboratories, #4561084) and proteins were separated at 120V. Afterwards, proteins were transferred to polyvinylidene fluoride (PVDF) membranes, subsequently non-specific antibody binding was blocked with 5% nonfat dry milk (BIO-RAD, #1706404) in TBST buffer and incubated overnight at 4 °C with one of the following primary antibodies: anti-MIF (1:1000, ThermoFisher, #PA5-27343 ) or anti-β-actin (1:10000 Cell Signalling, #8457). The membranes were further incubated with a goat anti-rabbit HRP-conjugated secondary antibody (1:2000, DAKO, p0448) for 2 h at room temperature. Proteins were visualized with an ECLTM Prime Western Blotting System (GE Healthcare #RPN2232). The immunoblot was generated by ChemiDoc MP Imaging Systems (Bio-Rad) and analyzed by the ImageJ software. […]
As a control, the same experiment was repeated and analyzed by a western-blot assay (Figure 3B). The potency estimated from the Western blot assay was 1 µM (Figure 3C), which is consistent with the result from the ELISA assay. The “Hook effect” […]

MIF [4] = molecular target: T1, MIF; test: MIF degradation in A549 cells, cell lysate-based ELISA; parameters: endogenous in cells; host or cells: A549 (ATCC CCL-185); details: 12 h, vs DMSO, mean±SD n=3

SMILES | IC50 (MIF [1]) [µM] | Ki (MIF [1]) [µM] | degradation [%] 2 μM (MIF [2]; A549 cells, 12 h) | Dmax at 20 µM (MIF [2]; A549, 12 h, A549 cells, 12 h) [%] | further results
O=C(CCCCNc1cccc2c1C(=O)N(C1CCC(=O)NC1=O)C2=O)NCc1ccc(N2Cc3ccc(O)cc3OC2=O)cc1 (centres unmarked) [MD8] | 0.129 ± 0.008 | 0.086 ± 0.005 | 21±7% | – | Dmax at 20 µM (MIF [2]; A549 cells, 12 h): 51 ± 4%
O=C(Cc1ccc(N2Cc3ccc(O)cc3OC2=O)cc1)NCc1cn(-c2ccc(CC(=O)Nc3cccc4c3C(=O)N(C3CCC(=O)NC3=O)C4=O)cc2)nn1 (centres unmarked) [MD12] | 0.138 ± 0.006 | 0.092 ± 0.004 | n.s. | 38 ± 6 | –
COC(=O)CC1CC(c2ccc(O)cc2)=NO1 (centres unmarked) [compound 1, ISO 1] | – | – | – | – | rescue of MD9 mediated MIF degradation (MIF [3]): partial to complete rescue; also recorded: rescued
O=C1CCC(N2C(=O)c3cccc(NCc4cn(CCC(=O)Nc5ccc(N6Cc7ccc(O)cc7OC6=O)cc5)nn4)c3C2=O)C(=O)N1 (centres unmarked) [MD10] | 0.147 ± 0.013 | 0.098 ± 0.009 | 55±9% | – | –
O=C1CCC(N2C(=O)c3cccc(NC(=O)CCCCc4cn(CCC(=O)Nc5ccc(-c6cc7ccc(O)cc7oc6=O)cc5)nn4)c3C2=O)C(=O)N1 (centres unmarked) [MD5] | 0.895 ± 0.082 | 0.597 ± 0.055 | n.s. | 58 ± 8 | –
O=C1CCC(N2C(=O)c3cccc(NC(=O)CCc4cn(CC(=O)Nc5ccc(-c6cc7ccc(O)cc7oc6=O)cc5)nn4)c3C2=O)C(=O)N1 (centres unmarked) [MD2] | 0.288 ± 0.025 | 0.192 ± 0.017 | n.s. | 31 ± 3 | –
O=C1CCC(N2C(=O)c3cccc(NC(=O)CCCc4cn(CCC(=O)Nc5ccc(N6Cc7ccc(O)cc7OC6=O)cc5)nn4)c3C2=O)C(=O)N1 (centres unmarked) [MD11] | 0.143 ± 0.011 | 0.095 ± 0.007 | n.s. | – | degradation (%) 20 µM (MIF [2]; A549 cells, 12 h): 40±8%
COc1ccc(-c2cc3ccc(O)cc3oc2=O)cc1 [compound 2, reference compound] | – | 0.37 ± 0.03 | – | – | –
O=C1CCC(N2C(=O)c3cccc(NC(=O)CCCc4cn(CC(=O)Nc5ccc(-c6cc7ccc(O)cc7oc6=O)cc5)nn4)c3C2=O)C(=O)N1 (centres unmarked) [MD3] | 0.182 ± 0.016 | 0.121 ± 0.011 | n.s. | 22 ± 9 | –
O=C1CCC(N2C(=O)c3cccc(NC(=O)CCCCc4cn(CC(=O)Nc5ccc(-c6cc7ccc(O)cc7oc6=O)cc5)nn4)c3C2=O)C(=O)N1 (centres unmarked) [MD4] | 0.233 ± 0.026 | 0.155 ± 0.017 | n.s. | 50 ± 3 | –
O=C1CCC(N2C(=O)c3cccc(NCCCCCCCCCC(=O)Nc4ccc(N5Cc6ccc(O)cc6OC5=O)cc4)c3C2=O)C(=O)N1 (centres unmarked) [MD14] | 0.097 ± 0.006 | 0.065 ± 0.004 | 64±2% | – | degradation [%] 0.2 μM (MIF [4]): 51±2%
CC(C)C[C@H](NC(=O)[C@H](Cc1ccccc1)NC(=O)c1cnccn1)B(O)O [Bortezomib] | – | – | – | – | rescue of MD9 mediated MIF degradation (MIF [3]): considerably decreased; also recorded: rescued; rescue of MD13 mediated MIF degradation (MIF [3]): inhibited the degradation of MIF; rescue of MD13 mediated MIF degradation (MIF [3]; listed as bortezomib): able to abolish the MD13 triggered degradation
O=C1CCC(N2C(=O)c3cccc(NC(=O)Cc4ccc(-n5cc(CCCC(=O)Nc6ccc(-c7cc8ccc(O)cc8oc7=O)cc6)nn5)cc4)c3C2=O)C(=O)N1 (centres unmarked) [MD6] | 1.5 ± 0.13 | 0.999 ± 0.087 | n.s. | – | degradation (%) 20 µM (MIF [2]; A549 cells, 12 h): n.s. and did not trigger MIF reduction
O=C1CCC(N2C(=O)c3cccc(NCCCCC(=O)Nc4ccc(N5Cc6ccc(O)cc6OC5=O)cc4)c3C2=O)C(=O)N1 (centres unmarked) [MD7] | 0.082 ± 0.004 | 0.055 ± 0.003 | n.s. | – | Dmax at 20 µM (MIF [2]; A549 cells, 12 h): 61 ± 7%
O=C1CCC(N2C(=O)c3cccc(NCc4cn(CC(=O)Nc5ccc(-c6cc7ccc(O)cc7oc6=O)cc5)nn4)c3C2=O)C(=O)N1 (centres unmarked) [MD1] | 0.262 ± 0.035 | 0.175 ± 0.023 | n.s. | 16 ± 7 | –
O=C1CCC(N2C(=O)c3cccc(NCCCCCCC(=O)Nc4ccc(N5Cc6ccc(O)cc6OC5=O)cc4)c3C2=O)C(=O)N1 (centres unmarked) [MD9] | 0.076 ± 0.004 | 0.051 ± 0.003 | 55±4% | 92 ± 10 | degradation [%] 0.2 μM (MIF [4]): 24±4%; Dmax (MIF [2]; A549, A549 cells, 12 h, ELISA, read-out: maximal degradation): > 90%; DC50 (MIF [2]; A549 cells, 12 h, ELISA, read-out: half-maximal degradation concentration (DC50)): 1.5 µM and ~1.5 µM; Hook effect (MIF [2]; A549 cells, at 20 μM, ELISA and western-blot): Hook effect; DC50 (MIF [3]; 12 h, western-blot, read-out: DC50 (potency estimated from western blot)): 1 µM and ~1.5 µM; time of treatment after which MIF degradation becomes visible (MIF [3]; MD9 at 10 μM): 3 h
